US9650365B2 (UNIVERSITY OF CONNECTICUT, priority 2014, dated 2017)

Columns and labels:
[1] = tested on: MERP MB cells (Math1-Cre-ER; Ptc fl/fl medulloblastoma); experiment: Anti-proliferation in primary MERP MB cells; format: cell-based, mice; details: Mus musculus, 48 h, read-out: GI50 (μM) MERP MB, 48 hr incubation
Procedure: General Information. Protocols for general cell culture, qPCR and Hh inhibition in C3H10T1/2 and ASZ cells are as previously described.^28 Protocols for the initiation and growth of Math1-Cre-ER; Ptc^fl/fl medulloblastoma tumors, isolation and in vitro culture of MERP MB cells, as wells as the anti-proliferation and qPCR studies performed in these cells were as previously described.^a Sonic Hedgehog (C25II) recombinant mouse protein was purchased from Life Technologies. aData was analyzed using GraphPad Prism 5 and reported values represent mean±SEM for at least two separate experiments performed in triplicate.
In this well-studied model system for evaluating small molecule inhibition of Hh signaling, addition of an exogenous Hh agonist (recombinant Hh ligand or small molecule) results in a characteristic increase in Gli1 mRNA expression. Concomitant incubation with a pathway inhibitor reduces Gli1 expression. […] In addition, several compounds were evaluated for their anti-proliferative effects in primary Hh-dependent medulloblastoma cells isolated from conditional patched knockout (Math1-Cre-ER; Ptc^fl/fl, MERP) mice. […] Finally, each of these analogues was evaluated for its ability to inhibit proliferation in human umbilical vein […] cells (HUVECs). In vivo angiogenesis is dependent on endothelial cell proliferation; therefore, the inhibition of HUVEC proliferation is commonly utilized as an early stage in vitro model of anti-angiogenic activity.

BCRP = target: T1, BCRP (Homo sapiens, UniProt Q9UNQ0); details: read-out: IC50 BCRP inhibition; cited from earlier work
T1 construct: expressed in transfected cells; host or cells: Madin Darby canine kidney cells (MDCK)
T1 sequence (Q9UNQ0 1-655): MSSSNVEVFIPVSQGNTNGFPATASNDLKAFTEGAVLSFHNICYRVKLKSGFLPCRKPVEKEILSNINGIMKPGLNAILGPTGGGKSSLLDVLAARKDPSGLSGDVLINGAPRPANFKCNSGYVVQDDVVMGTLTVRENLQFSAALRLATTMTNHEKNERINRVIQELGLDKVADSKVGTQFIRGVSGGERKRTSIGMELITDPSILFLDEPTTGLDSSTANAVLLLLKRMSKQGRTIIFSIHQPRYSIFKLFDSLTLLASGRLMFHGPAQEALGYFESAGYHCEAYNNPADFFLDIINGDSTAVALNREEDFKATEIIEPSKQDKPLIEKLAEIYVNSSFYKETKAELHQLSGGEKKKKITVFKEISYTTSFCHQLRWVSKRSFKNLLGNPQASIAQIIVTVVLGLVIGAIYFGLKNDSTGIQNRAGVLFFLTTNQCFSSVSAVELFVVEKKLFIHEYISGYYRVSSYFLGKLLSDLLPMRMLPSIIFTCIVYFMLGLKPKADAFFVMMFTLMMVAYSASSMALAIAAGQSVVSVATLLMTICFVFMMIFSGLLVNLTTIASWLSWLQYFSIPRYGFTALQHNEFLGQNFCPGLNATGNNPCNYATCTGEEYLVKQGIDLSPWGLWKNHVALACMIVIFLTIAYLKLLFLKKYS

angiogenesis = details: background; cited from earlier work

Q: Which GI50 [1] does the source give for `CCC(C)n1ncn(-c2ccc(N3CCN(c4ccc(OCC5COC(Cn6cncn6)(c6ccc(Cl)cc6Cl)O5)cc4)CC3)cc2)c1=O` (stereo not drawn) [ITZ, itraconazole, reference compound] here?
A: 0.44 ± 0.08 µM

Q: What about the IC50 (BCRP) of the same compound?
A: ~1000 nM

Q: What about the IC50 (angiogenesis) of the same compound?
A: 160 nM
